Experimental data published in ChEMBL document CHEMBL1152829, “2,3-Disubstituted 8-arylamino-3H-imidazo[4,5-g]quinazolines: a novel class of antitumor agents” (Eur J Med Chem, 2009).

Key:
MOLT-4 = assay: Cytotoxicity against human MOLT4 cells after 96 hrs by MTT assay; format: functional, cell-based; conditions: MOLT-4, 96 h
K562 = assay: Cytotoxicity against human K562 cells after 96 hrs by MTT assay; format: functional, cell-based; conditions: K562, 96 h
PC-3 = assay: Cytotoxicity against human PC3 cells after 96 hrs by MTT assay; format: functional, cell-based; conditions: PC-3, 96 h
MDA-MB-231 = assay: Cytotoxicity against human MDA-MB-231 cells after 96 hrs by MTT assay; format: functional, cell-based; conditions: MDA-MB-231, 96 h
A549 = assay: Cytotoxicity against human A549 cells after 96 hrs by MTT assay; format: functional, cell-based; conditions: A549, 96 h
A549 (Homo sapiens) [1] = assay: Cell cycle arrest in human A549 cells assessed as accumulation at G0/G1 phase at 10 umol/L after 24 hrs by FACS relative to untreated control
A549 (Homo sapiens) [2] = assay: Cell cycle arrest in human A549 cells assessed as accumulation at G2/M phase at 10 umol/L after 24 hrs by FACS relative to untreated control
A549 (Homo sapiens) [3] = assay: Cell cycle arrest in human A549 cells assessed as accumulation at S phase at 10 umol/L after 24 hrs by FACS relative to untreated control

SMILES | IC50 (MOLT-4) | IC50 (K562) | IC50 (PC-3) | IC50 (MDA-MB-231) | IC50 (A549) | Activity (A549 (Homo sapiens) [1]) | Percentage of cells in G2/M phase (A549 (Homo sapiens) [2]) | percent of cells in S phase (A549 (Homo sapiens) [3])
CCCCn1c(C(C)C)nc2cc3c(Nc4ccc(C)cc4)ncnc3cc21 | > 100 µM | > 100 µM | 24.8 µM | 10.7 µM | 12.1 µM | – | – | –
COc1ccc(Nc2ncnc3cc4c(cc23)nc(C(C)C)n4C2CCCCC2)cc1 | 7.69 µM | 19.3 µM | 23 µM | 21.1 µM | 7.31 µM | – | – | –
CCCc1nc2cc3c(Nc4ccc(OC)cc4)ncnc3cc2n1CCCOCC | > 100 µM | > 100 µM | > 100 µM | > 100 µM | 18.3 µM | – | – | –
COc1cc2ncnc(Nc3ccc(F)c(Cl)c3)c2cc1OCCCN1CCOCC1 [GEFITINIB] | – | – | – | – | – | 76.12% | 4.64% | 19.24%
CCCCCCc1nc2cc3c(Nc4ccc(OC)cc4)ncnc3cc2n1CCCOCC | > 100 µM | 40.9 µM | > 100 µM | > 100 µM | 39 µM | – | – | –
CCOCCCn1c(CC(C)C)nc2cc3c(Nc4ccc(OC)cc4)ncnc3cc21 | > 100 µM | 14.4 µM | > 100 µM | > 100 µM | 2.81 µM | 81.47% | 3.12% | 15.41%
COc1ccc(Nc2ncnc3cc4c(cc23)nc(C(C)C)n4C(C)C)cc1 | > 100 µM | > 100 µM | > 100 µM | 35.7 µM | 6.26 µM | – | – | –
CCOCCCn1c(Cc2ccccc2)nc2cc3c(Nc4ccc(OC)cc4)ncnc3cc21 | > 100 µM | 12.9 µM | > 100 µM | 15.5 µM | 22.1 µM | – | – | –
CCCCn1c(C(C)C)nc2cc3c(Nc4ccc(F)cc4)ncnc3cc21 | 11.4 µM | 5.55 µM | 9.74 µM | 20 µM | 4.25 µM | 86.28% | 2.99% | 10.73%
CCCCn1c(C(C)C)nc2cc3c(Nc4ccc(OC)cc4)ncnc3cc21 | 11.5 µM | > 100 µM | 18.9 µM | > 100 µM | 8.29 µM | – | – | –
CCCc1nc2cc3c(Nc4ccc(OC)c(OC)c4)ncnc3cc2n1CCCOC | 10.9 µM | 14.3 µM | 24.6 µM | 20.6 µM | 11.5 µM | – | – | –
CC(C)c1nc2cc3c(Nc4ccccc4)ncnc3cc2n1C1CCCCC1 | 2.83 µM | 17.4 µM | 24.7 µM | > 100 µM | 22.1 µM | – | – | –
CCOCCCn1c(CC)nc2cc3c(Nc4ccc(OC)cc4)ncnc3cc21 | > 100 µM | > 100 µM | > 100 µM | > 100 µM | 6.05 µM | – | – | –
CCCCn1c(C(C)C)nc2cc3c(Nc4ccc(OC)c(OC)c4)ncnc3cc21 | 6.63 µM | 18.5 µM | > 100 µM | 20 µM | 5.58 µM | – | – | –
COCCCn1c(C(C)C)nc2cc3c(Nc4ccc(OC)cc4)ncnc3cc21 | > 100 µM | > 100 µM | > 100 µM | > 100 µM | 15.8 µM | – | – | –
CCOCCCn1c(C(C)C)nc2cc3c(Nc4ccc(OC)cc4)ncnc3cc21 | > 100 µM | 5.18 µM | > 100 µM | > 100 µM | 4.59 µM | 80.38% | 3.4% | 16.22%
